Where a name gives a salt, the structure may show the parent alone.
Tests used:
dipeptidyl peptidase IV = biological target: T1, dipeptidyl peptidase IV (Rattus norvegicus, UniProt P14740); assay: biochemical; conditions: glycyl·prolyl·β-naphthylamide, pH 7.2, 37° C., 1 hour, read-out: Dipeptidyl peptidase IV 50% inhibition activity value (converted)
T1 construct: partially purified from rat kidney homogenate by ammonium sulfate fractionation; from tissue; host or cells: rat kidney

[1] = test system: ICR strain male mice (Crj:CD-1); assay: Test for evaluating efficacy in drug-induced leukopenia (cyclophosphamide); assay type: in vivo; conditions: for number of leukocytes: cyclophosphamide 200 mg/kg i.p. Day 0
Procedure: The efficacy of the compound of Example 1 in drug-induced leukopenia was evaluated according to the method of Okabe et al. (Yakuri to Chiryo (Pharmacology and Treatment), Vol. 19, No. 6, p. 55, 1991).
ICR strain male mice (Crj:CD-1) aged 8 weeks were used in the test. The animals were divided into three groups of 3 or 4 animals each. On Day 0, cyclophosphamide was intraperitoneally administered once to all the groups in a dose of 200 mg/kg. From the next day, the following were intravenously and repeatedly administered to the groups, respectively, for 5 days (Days 1 to 5); a first group (a control group): physiological saline, a second group: the compound of Example 1 (30 mg/kg/day), and a third group: the compound of Example 1 (100 mg/kg/day). Blood was drawn from the orbital vein on Day 0 (before the administration of cyclophosphamide) and Days 2, 4, 6, 8 and 10, and the number of leukocytes was periodically measured to investigate the leukocyte-increasing effect of the compound of Example 1 on leukopenia induced by cyclophosphamide.

[2] = test system: ICR strain male mice (Crj:CD-1); assay: Test for investigating the increase of leukocytes and the decrease of platelets in normal mice; assay type: in vivo; conditions: for Number of platelets / number of leukocytes: blood drawn day after last administration
Procedure: ICR strain male mice (Crj:CD-1) aged 8 weeks were used in the test. The animals were divided into 5 groups of 3 to 4 animals each. The following were intravenously and repeatedly administered to the groups, respectively, for 5 days; a first group: physiological saline as solvent, a second group: the compound of Example 45 (hydrochloride of the compound of Example 1) (10 mg/kg/day), a third group: the compound of Example 45 (50 mg/kg/day), a fourth group: the compound of Example 45 (250 mg/kg/day), and a fifth group: sulphostin (WO 99/25719 and JP-A-2000-327689; (3S, PR)-3-amino-1-amino(sulfoamino)phosphinyl-2-piperidone) (50 mg/kg/day). On the day subsequent to the last day in the administration period, blood was drawn from the abdominal aorta under anesthesia and the number of leukocytes and the number of platelets were measured.

[3] = normal mice, 10 mg/kg/day i.v. for 5 days
[4] = normal mice, 50 mg/kg/day i.v. for 5 days
[5] = normal mice, 250 mg/kg/day i.v. for 5 days

T1 sequence (P14740 whole entry): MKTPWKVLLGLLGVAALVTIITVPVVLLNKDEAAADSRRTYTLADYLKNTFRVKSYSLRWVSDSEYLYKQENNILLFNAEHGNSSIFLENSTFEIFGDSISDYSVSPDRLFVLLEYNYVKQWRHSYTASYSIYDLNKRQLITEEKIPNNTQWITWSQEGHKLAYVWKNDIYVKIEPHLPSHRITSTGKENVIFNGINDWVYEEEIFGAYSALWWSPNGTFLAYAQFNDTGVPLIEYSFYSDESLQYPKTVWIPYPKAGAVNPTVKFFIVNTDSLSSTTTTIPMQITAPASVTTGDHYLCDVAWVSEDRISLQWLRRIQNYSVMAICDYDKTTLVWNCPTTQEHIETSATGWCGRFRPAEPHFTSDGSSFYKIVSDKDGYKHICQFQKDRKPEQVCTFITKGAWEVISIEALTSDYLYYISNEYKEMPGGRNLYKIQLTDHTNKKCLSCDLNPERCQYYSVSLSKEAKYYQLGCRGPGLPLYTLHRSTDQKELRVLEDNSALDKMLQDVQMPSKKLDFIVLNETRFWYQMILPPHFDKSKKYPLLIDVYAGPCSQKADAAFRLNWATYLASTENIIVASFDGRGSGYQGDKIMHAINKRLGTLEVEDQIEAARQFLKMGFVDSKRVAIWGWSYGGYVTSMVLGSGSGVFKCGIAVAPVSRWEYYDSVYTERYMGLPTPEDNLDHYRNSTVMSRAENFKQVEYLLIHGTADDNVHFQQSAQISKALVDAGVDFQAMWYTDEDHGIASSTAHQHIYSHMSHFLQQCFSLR

CCCNP(N)(=O)N1CCC[C@H](N)C1=O (mixture of isomers) [Example 15, (3S, P (RS))-3-amino-1-amino(n-propylamino)phosphinyl-2-piperidone]
IC50 (dipeptidyl peptidase IV): 7260 nM

N[C@H]1CCCN(P(N)(=O)NC(=O)c2ccccc2)C1=O (mixture of isomers) [Example 39, (3S, P (RS))-3-amino-1-amino(benzoylamino)phosphinyl-2-piperidone]
IC50 (dipeptidyl peptidase IV): 2400 nM

CCCC(=O)NP(N)(=O)N1CCC[C@H](N)C1=O (mixture of isomers) [Example 51, (3S, P (SR))-3-amino-1-amino(n-butanoylamino)phosphinyl-2-piperidone]
IC50 (dipeptidyl peptidase IV): 1140 nM

CC(C)(C)CC(=O)NP(N)(=O)N1CCC[C@H](N)C1=O (mixture of isomers) [Example 53, (3S, P (SR))-3-amino-1-amino(t-butylacetylamino)phosphinyl-2-piperidone]
IC50 (dipeptidyl peptidase IV): 1480 nM

N[C@H]1CCCN(P(N)(=O)NC(=O)C2CCCCC2)C1=O (mixture of isomers) [Example 55, (3S, P (SR))-3-amino-1-amino(cyclohexanecarbonylamino)phosphinyl-2-piperidone]
IC50 (dipeptidyl peptidase IV): 1590 nM

N[C@H]1CCCN(P(N)(=O)NC(=O)COc2ccccc2)C1=O (mixture of isomers) [Example 57, (3S, P (SR))-3-amino-1-amino(phenoxyacetylamino)phosphinyl-2-piperidone]
IC50 (dipeptidyl peptidase IV): 187 nM

N[C@H]1CCCN(P(N)(=O)NC(=O)CCc2ccccc2)C1=O (mixture of isomers) [Example 59, (3S, P (SR))-3-amino-1-amino(3-phenylpropanoylamino)phosphinyl-2-piperidone]
IC50 (dipeptidyl peptidase IV): 894 nM

COc1ccc(C(=O)NP(N)(=O)N2CCC[C@H](N)C2=O)cc1 (mixture of isomers) [Example 61, (3S, P (SR))-3-amino-1-amino(4-methoxybenzoylamino)phosphinyl-2-piperidone]
IC50 (dipeptidyl peptidase IV): 1070 nM

N[C@H]1CCCN(P(N)(=O)Nc2ccccc2)C1=O (single isomer, unassigned) [Example 17, (3S, P (R or S))-3-amino-1-amino(phenylamino)phosphinyl-2-piperidone]
IC50 (dipeptidyl peptidase IV): 5590 nM

CC(=O)NP(N)(=O)N1CCC[C@H](N)C1=O (single isomer, unassigned) [Example 48, (3S, P (R or S))-3-amino-1-amino(acetylamino)phosphinyl-2-piperidone ½ fumarate]
IC50 (dipeptidyl peptidase IV): 1620 nM

N[C@H]1CCCN(P(N)(N)=O)C1=O [Example 1, (3S)-3-amino-1-diaminophosphinyl-2-piperidone]
IC50 (dipeptidyl peptidase IV): 88.5 nM
number of leukocytes ([1]; 30 mg/kg/day i.v. Days 1 to 5, Day 0 (before cyclophosphamide)): 33 ± 7.8 ×100/millimeter cube
number of leukocytes ([1]; 30 mg/kg/day i.v. Days 1 to 5, Day 2): 23 ± 14.2 ×100/millimeter cube
number of leukocytes ([1]; 30 mg/kg/day i.v. Days 1 to 5, Day 4): 7 ± 1.8 ×100/millimeter cube
number of leukocytes ([1]; 30 mg/kg/day i.v. Days 1 to 5, Day 6): 25 ± 6.2 ×100/millimeter cube
number of leukocytes ([1]; 30 mg/kg/day i.v. Days 1 to 5, Day 8): 108 ± 52.8 ×100/millimeter cube
number of leukocytes ([1]; 30 mg/kg/day i.v. Days 1 to 5, Day 10): 58 ± 16.1 ×100/millimeter cube
number of leukocytes relative to Day 0 ([1]; 30 mg/kg/day, Day 0): 100%
number of leukocytes relative to Day 0 ([1]; 30 mg/kg/day, Day 2): 70%
number of leukocytes relative to Day 0 ([1]; 30 mg/kg/day, Day 4): 21%
number of leukocytes relative to Day 0 ([1]; 30 mg/kg/day, Day 6): 76%
number of leukocytes relative to Day 0 ([1]; 30 mg/kg/day, Day 8): 327%
number of leukocytes relative to Day 0 ([1]; 30 mg/kg/day, Day 10): 176%
number of leukocytes ([1]; 100 mg/kg/day i.v. Days 1 to 5, Day 0 (before cyclophosphamide)): 81 ± 38.7 ×100/millimeter cube
number of leukocytes ([1]; 100 mg/kg/day i.v. Days 1 to 5, Day 2): 25 ± 8.3 ×100/millimeter cube
number of leukocytes ([1]; 100 mg/kg/day i.v. Days 1 to 5, Day 4): 13 ± 6.8 ×100/millimeter cube
number of leukocytes ([1]; 100 mg/kg/day i.v. Days 1 to 5, Day 6): 124 ± 144.2 ×100/millimeter cube
number of leukocytes ([1]; 100 mg/kg/day i.v. Days 1 to 5, Day 8): 139 ± 36.7 ×100/millimeter cube
number of leukocytes ([1]; 100 mg/kg/day i.v. Days 1 to 5, Day 10): 49 ± 7.3 ×100/millimeter cube
number of leukocytes relative to Day 0 ([1]; 100 mg/kg/day, Day 0): 100%
number of leukocytes relative to Day 0 ([1]; 100 mg/kg/day, Day 2): 31%
number of leukocytes relative to Day 0 ([1]; 100 mg/kg/day, Day 4): 16%
number of leukocytes relative to Day 0 ([1]; 100 mg/kg/day, Day 6): 153%
number of leukocytes relative to Day 0 ([1]; 100 mg/kg/day, Day 8): 172%
number of leukocytes relative to Day 0 ([1]; 100 mg/kg/day, Day 10): 60%
effect in increasing the number of leukocytes (in words) ([1]; data on Day 8): very effective in increasing the number of leukocytes
recovery of the number of leukocytes to the initial value after the administration of cyclophosphamide ([1]; groups treated with 30 and 100 mg/kg/day, control group requires 8 days): 6 days

N[C@H]1CCCN(P(=O)(Nc2ccccc2)Nc2ccccc2)C1=O [Example 11, (3S)-3-amino-1-bis(phenylamino)phosphinyl-2-piperidone]
IC50 (dipeptidyl peptidase IV): 43600 nM

CN[C@H]1CCCN(P(N)(N)=O)C1=O [Example 22, (3S)-3-methylamino-1-diaminophosphinyl-2-piperidone]
IC50 (dipeptidyl peptidase IV): 1410 nM

CCCN[C@H]1CCCN(P(N)(N)=O)C1=O [Example 25, (3S)-3-n-propylamino-1-diaminophosphinyl-2-piperidone]
IC50 (dipeptidyl peptidase IV): 3670 nM

CC(C)N[C@H]1CCCN(P(N)(N)=O)C1=O [Example 28, (3S)-3-isopropylamino-1-diaminophosphinyl-2-piperidone]
IC50 (dipeptidyl peptidase IV): 17900 nM

CCCCN[C@H]1CCCN(P(N)(N)=O)C1=O [Example 31, (3S)-3-n-butylamino-1-diaminophosphinyl-2-piperidone]
IC50 (dipeptidyl peptidase IV): 3750 nM

NP(N)(=O)N1CCC[C@H](NCc2ccccc2)C1=O [Example 34, (3S)-3-benzylamino-1-diaminophosphinyl-2-piperidone]
IC50 (dipeptidyl peptidase IV): 3900 nM

NP(N)(=O)N1CCC[C@H](NCc2ccco2)C1=O [Example 37, (3S)-3-furfurylamino-1-diaminophosphinyl-2-piperidone]
IC50 (dipeptidyl peptidase IV): 7710 nM

N[C@@H]1CCCN(P(N)(N)=O)C1=O [Example 42, (3R)-3-amino-1-diaminophosphinyl-2-piperidone]
IC50 (dipeptidyl peptidase IV): 48.4 nM

N[C@H]1CCCCN(P(N)(N)=O)C1=O [Example 43, (3S)-3-amino-1-diaminophosphinyl-2-perhydroazepinone]
IC50 (dipeptidyl peptidase IV): 107 nM

Cl.N[C@H]1CCCN(P(N)(N)=O)C1=O [Example 45, (3S)-3-amino-1-diaminophosphinyl-2-piperidone hydrochloride]
factor by which the number of leukocytes is larger than that of the control group ([2]; 10 mg/kg/day group): 4.2
factor by which the number of leukocytes is larger than that of the control group ([2]; 50 mg/kg/day group): 3.8
factor by which the number of leukocytes is larger than that of the control group ([2]; 250 mg/kg/day group): 6.7
Number of platelets [2, 3]: 76.0 ± 7.8 ×10000/millimeter cube
number of leukocytes [2, 3]: 25 ± 13 ×100/millimeter cube
Number of platelets [2, 4]: 84.9 ± 8.3 ×10000/millimeter cube
number of leukocytes [2, 4]: 23 ± 19 ×100/millimeter cube
Number of platelets [2, 5]: 81.1 ± 8.0 ×10000/millimeter cube
number of leukocytes [2, 5]: 40 ± 18 ×100/millimeter cube
influence on the number of platelets (in words) ([2]; normal mice, all the groups (10, 50, 250 mg/kg/day)): did not decrease the number of platelets

N[C@H]1CCCN([P@@](N)(=O)NS(=O)(=O)O)C1=O [sulphostin, (3S, PR)-3-amino-1-amino(sulfoamino)phosphinyl-2-piperidone, reference compound]
number of platelets as compared with the control group ([2]; 50 mg/kg/day, decreased): 73%
Number of platelets [2, 4]: 57.1 ± 5.1 ×10000/millimeter cube
number of leukocytes [2, 4]: 15 ± 5 ×100/millimeter cube

— US7348318B2, “α-Amino-N-(diaminophosphinyl)lactam derivatives” (priority 2002, dated 2008)
